Experimental data from ChEMBL document CHEMBL1157539, “Thousands of chemical starting points for antimalarial lead identification” (Nature, 2010).

Test system: Plasmodium falciparum
Assay: GSK_TCMDC: Inhibition of Plasmodium falciparum 3D7 in whole erythrocytes, using parasite LDH activity as an index of growth.
Type: functional, organism-based
Details: Plasmodium falciparum, 3D7

Compound	XC50 [nM]
CCn1ccc2c(N3CCCS3(=O)=O)cc(C(=O)N[C@@H](Cc3ccccc3)[C@H](O)CNC(C)(C)CCCC(C)C)cc21	491
FC(F)(F)COc1ccc(CNCCCCCCNCc2ccc(OCC(F)(F)F)c3ccccc23)c2ccccc12	400
Cc1cc(=O)c(-c2ccc(Oc3ccc(Cl)cc3Cl)cc2)c(C)[nH]1	841
O=c1n(CC2CCCCC2)c2cc(Cl)cc(OCCNc3ccncc3)c2n1CC1CCCCC1	593
CCOP(=O)(OCC)c1ccc(OC)c(-c2ccc[nH]2)c1	1190
Cc1cc2cc(NC(=O)Nc3ccnc4ccccc34)ccc2n1C	1090
Fc1cccc(COc2ccc(Nc3ncnc4sc(C#C[C@H]5CC[C@H](CNCC(F)(F)F)N5)cc34)cc2Cl)c1	1420
Nc1cccc(CNCc2ccc(-c3cccc(-c4nc5cc(C(F)(F)F)ccc5[nH]4)c3)cc2)c1	172
Cc1cccc2nc(-c3cccc(-c4ccc(CNCc5cccc(N)c5)cc4)c3)[nH]c12	260
CCc1cccc(C)c1-n1nc(-c2cc(C(C)(C)C)oc2C)cc1N	658
CCCCCCN1CCCN(Cc2cccc(C(=O)Nc3ccc(C(C)(C)C)cc3)c2)CC1	943
O=C(Nc1ccc([N+](=O)[O-])cc1Br)c1cc2ccccc2nc1Cl	185
CC(C)CNCc1cccc(-c2ccccc2CN(C(=O)NCCc2ccccc2)C2CCN(Cc3ccccc3)CC2)c1	1170
CCCC(C)Nc1nc(C)cc(N[C@@H](Cc2ccccc2)C(=O)Nc2ccc(OC)cc2)n1 (some centres undefined)	1120
CCN(CCCN1CCCCC1)c1cc(C)nc(Nc2ccc(Cl)cc2C)n1	729
Cc1cc(N2CCCC2)nc(Nc2ccc(NC(=O)c3ccc(Br)o3)cc2)n1	623
O=C(Cc1cn(-c2ccccc2)nc1-c1ccc(Cl)cc1)Nc1nccs1	1200
COc1ccc2nccc([C@@H](O)CN3C4CCC3CC(NCc3ccc5c(n3)NC(=O)CS5)C4)c2n1 (some centres undefined)	934
Nc1ncc(-c2ccccc2)cc1/C=C/c1cccnc1	1120
CCCCSc1nc2c(c(=O)n1Cc1ccco1)C1(CCCCC1)Cc1ccccc1-2	958
COc1ccc(N2CCN(CCCCNC(=O)c3ccc(NC(=O)c4cc(C(F)(F)F)cc(C(F)(F)F)c4)cc3)CC2)c(OC)c1	153
Cc1cc(C(=O)N(Cc2ccc(-c3ccc(CNCCc4ccc(S(C)(=O)=O)cc4)cn3)cc2)C(C)CN(C)C)ccc1[N+](=O)[O-] (centres undefined)	789
O=C(/C=C/c1ccc(Cl)c(Cl)c1)NCCCCCN1CCCC(C(=O)Nc2ccc(Cl)c(Cl)c2)C1 (centres undefined)	785
COc1ccc(C=CC(=O)N2CCC(CN3CCC(c4c[nH]c5ccccc45)CC3)CC2)cc1OC	1070
CCCn1c(O)nnc1SCC(=O)Nc1cc(C(F)(F)F)ccc1Cl	222

Compound	XC50 [nM]
Cn1cc(C2CCN(CCCCNC(=O)c3ccc(C(=O)Nc4ccc(C#N)cc4)cc3)CC2)c2ccccc21	724
COc1cccc(C2=CC(c3ccccc3)n3ncc(C(=O)Nc4ccc(Cl)cc4)c3N2)c1 (centres undefined)	1060
CCN(CC)CCCNc1c2ccccc2nc2ccccc12	753
O=C(NC1CCN(CCCc2ccccc2)CC1)c1ccc(-c2cccc(C(F)(F)F)c2)s1	894
c1cc(CNCC2CCCO2)cc(-c2cccc(-c3nc4ccccc4[nH]3)c2)c1 (centres undefined)	859
FC(F)(F)c1ccc2[nH]c(-c3cccc(-c4ccc(CNCc5ccccc5)cc4)c3)nc2c1	163
CNC(=O)C(C)N(c1ccc(Cl)cc1)c1nc(C(C)(C)C)cs1 (centres undefined)	741
Cc1c(CC(=O)N(C)C2CCN(CCCCCNC(=O)/C=C/c3ccc(Cl)c(Cl)c3)CC2)sc2ccc(Cl)cc12	1160
COc1c(C2CCN(CCCCNC(=O)c3cc(-c4ccc(Cl)cc4)oc3C)CC2)ccc2c1CCCC2	882
COc1ccc2cc(-c3nc(-c4c(Cl)cccc4Cl)[nH]c3-c3ccnc(NCCCN4CCCCC4C)c3)ccc2c1 (centres undefined)	948
O=C(c1csc(-c2cccnc2)n1)N1CCc2cc3nccc(N4CCN5CCC[C@H]5C4)c3cc21	695
COc1cccc(NC(=O)CSc2nc(-c3ccccc3Cl)ns2)c1	814
N=C(N)c1ccc(Nc2nc(Nc3ccc(-c4ccccc4)cc3)ncc2[N+](=O)[O-])cc1	804
CC(Cc1ccc(OCc2ccccc2)cc1)NCC(O)c1cccc(Cl)c1 (centres undefined)	547
O=C(Nc1cccc(-c2csc(-c3ccccc3)n2)c1)c1cccs1	800
CCOc1cc(C(=O)NC2CCN(Cc3ccccc3)CC2)ccc1-c1nc2cc(Cl)c(Cl)cc2[nH]1	469
CCNc1cc(C(=O)N[C@@H](Cc2ccccc2)[C@H](O)CNC2(C)CCCCC2)cc(N2CCCCS2(=O)=O)c1	156
N=C(N)NN=Cc1ccc2c(ccc3ccccc32)c1	634
COc1cc2nc(Nc3ccc4c(ccn4Cc4ccccc4)c3)nc(Nc3ccc4c(ccn4Cc4ccccc4)c3)c2cc1OC	647
COc1ccc2nccc([C@@H](O)CN3CCC(NCc4cc5c(F)ccc(F)c5[nH]4)CC3)c2n1	699
c1ccc(CN2CCN(c3cc(-c4cncc(-c5ccccc5)c4)nc(-c4ccccc4)n3)CC2)cc1	1040
Cc1nc2ccc(NC(=O)Nc3ccnc4ccc(C(F)(F)F)cc34)cc2o1	912
CC(C)n1c(C2CCN(CC3CCN(C(=O)/C=C/c4ccc(Cl)c(Cl)c4)CC3)CC2)nc2ccccc21	1030
CC1CCCCN1CCCNc1nc(NCc2ccccc2)c2ccccc2n1 (centres undefined)	953
CN1CCN(c2ccnc3ccc(NC(=O)Cc4cccc(Cl)c4Cl)cc23)CC1	791

Compound	XC50 [nM]
Clc1ccc(CNc2ccnc(NCc3ccc4c(c3)OCCCO4)n2)c(Cl)c1	994
CCCCCCc1cc(O)c2c3c(c(=O)oc2c1)CCN(C)C3	671
CCCSc1nc2c(c(=O)n1Cc1ccco1)C1(CCCCC1)Cc1ccccc1-2	424
CCN(CCN(C)C)Cc1ccc(-c2ccc(NS(=O)(=O)c3cccc(Cl)c3)cc2)cc1	523
CCCN1CC[C@@H](CCCc2ccnc3ccc(O)cc23)[C@@H](CC)C1	889
COc1cc(CNc2ccc(N3CCCC3)cc2)cc(Cl)c1OC	700
CN1CCN(c2ccnc3ccc(NC(=O)Cc4ccc(OCc5ccccc5)cc4)cc23)CC1	628
CN1CCC(N2CCN(c3ccc4c(=O)nc(CCc5cccc(F)c5F)n(CC(=O)N(C)Cc5ccc(-c6ccc(C(F)(F)F)cc6)cc5)c4n3)CC2)CC1	717
Cc1cc(N(C)C2CCN(C)CC2)nc(Nc2ccc(Br)cc2)n1	480
COc1ccc(-c2cccc(NC(=O)c3ccc(F)cc3)c2)cc1CNC(C)C	1380
CCNc1cc(C)nc(Nc2ccc(NC(=O)Cc3ccc(OC)cc3)cc2)n1	1380
CCCCc1cc(N2CCC(NC(C)=O)C2)nc(Nc2ccc(C)cc2)n1 (centres undefined)	866
CN(C)CCNCc1cccc(-c2cccc(-c3nc4ccccc4[nH]3)c2)c1	766
CCNc1cc(C(=O)N[C@@H](Cc2ccccc2)[C@H](O)CNC23CC4CC(CC(C4)C2)C3)cc(N2CCCCS2(=O)=O)c1	219
O=S(=O)(Nc1ccc(CCN2CCC(N3CCCCC3)CC2)cc1)c1cccc2cccnc12	1060
CC(=O)Nc1ncc(C(=O)Nc2cccc(-c3cccc(-c4nc5cc(F)ccc5[nH]4)c3)c2)s1	454
COc1ccc2nc(C)cc(Nc3ccc(Cl)c(Cl)c3)c2c1	441
O=C(/C=C/c1ccc(Cl)c(Cl)c1)NCCCCCN1CCC(NC(=O)Nc2ccc(Cl)c(Cl)c2)CC1	892
Cn1c(=O)c2nc(-c3ccc(Cl)cc3)nnc2n(CCCC#N)c1=O	153
CCN(CC)CCN(Cc1ccc(-c2ccc(C(F)(F)F)cc2)cc1)C(=O)Cn1c(CCc2cc(F)c(F)c(F)c2)nc(=O)c2ccccc21	827
Cc1cccc(CNc2nccc3[nH]c4ccccc4c23)c1	1900
COc1ccc(-c2cc(C(=O)N[C@@H](CC3CCCCC3)C(=O)NC3CCCc4ccccc43)ccc2O)cc1 (some centres undefined)	688
CN(C)CCCOc1cccc(NC(=O)Nc2ccc(-c3ccccc3)cc2)c1	868
CC1(C)NC(N)=NC(=N)N1OCCCOc1ccc(N)cc1	7.04
CCCOc1cc(Cc2cnc(N)nc2N)cc(OC)c1OC	1170

Compound	XC50 [nM]
Cc1cccc(C)c1/N=C1\NC(=S)N(c2cccc(Cl)c2)C12CCC(C(C)(C)C)CC2 (centres undefined)	760
CCNC(=O)c1ccc(-n2nc(C)cc2-c2ccccc2)cc1	1120
CN(CCc1ccccn1)c1cccc2c1nc(-c1cccnc1)n2CCNCc1ccccc1	1060
CN1CCN(CC2(Nc3nccc(NCc4ccc(Cl)cc4Cl)n3)CCCCC2)CC1	593
Nc1ncc(-c2ccsc2)c2ccc(-c3cnc[nH]3)cc12	573
CC(C)N(Cc1ccccc1)C(=O)CN1C(=O)COc2ccc(S(=O)(=O)N3CCCCCC3)cc21	253
Cc1cc(N2CCN(C(=O)OC(C)(C)C)CC2)ccc1N	865
Fc1ccc2[nH]c3c(NCCN4CCCCC4)ncnc3c2c1	834
CCc1cc2c3c(N)nc(N)nc3ccc2n1C(C)(C)C	12.7
Cc1cc(NCCC(=O)NCc2cccc(F)c2)nc(NCCc2ccc(F)cc2)n1	1750
Oc1ccccc1CNCC12CC3CC(CC(C3)C1)C2	279
CCCc1cc(C)ccc1OCCCON1C(NC(=O)OCC)=NC(NC(=O)OCC)=NC1(C)C	35.9
O=C(Nc1cccc(-c2ccc(CN3CCCC3)cc2)c1)c1ccc(Cl)cc1	427
Cc1ccc(CC(C)NC[C@H](O)c2cccc(Cl)c2)cc1 (some centres undefined)	860
COc1ccc2c(c1)[nH]c1c(/C=C/c3ccc([N+](=O)[O-])cc3)nccc12	858
O=C1Nc2cccc3c2C1(CCCCN1CCC(c2c(-c4ccc(F)cc4)[nH]c4ccccc24)CC1)CCC3 (centres undefined)	1190
COc1cccc2c(NN=Cc3cccc(Cl)c3)ccnc12	838
CN(C)CCCN(C)c1cccc2c1nc(-c1cccnc1)n2CCNCc1ccccc1	1390
CCN(CC)S(=O)(=O)c1ccc(C=CC(=O)Nc2cc(Cl)ccc2N2CCOCC2)cc1	920
COc1cccc2c(C)cc(NCc3ccc(Cl)cc3)nc12	860
O=C(Nc1cc(C(F)(F)F)ccc1Cl)c1ccc(Cn2cc(Br)cn2)cc1	1350
Cc1[nH]c(C)c(C(F)(F)F)c(=O)c1-c1ccc(Oc2ccc(OC(F)(F)F)cc2)cc1	173
CC(=O)c1ccc2cc(C(=O)NC3CCC(CCN4CCc5ccc(-c6noc(C)n6)cc5CC4)CC3)[nH]c2c1 (centres undefined)	946
COc1ccc(CCNc2nc(SCc3ccccc3Cl)nc3ccccc23)cc1OC	943
